Test results published in PMC10404669, “Vanillyl alcohol oxidase from Diplodia corticola: Residues Ala420 and Glu466 allow for efficient catalysis of syringyl derivatives” (The Journal of Biological Chemistry, 2023).

Molecular target: T1, DcVAO (vanillyl alcohol oxidase) (Diplodia corticola, UniProt A0A1J9QSC2)
T1 construct: gene BKCO1_4900020
Assay: specific activity of purified enzyme, xylenol orange H2O2 assay
Format: biochemical

T1 sequence (A0A1J9QSC2 entry or part of it): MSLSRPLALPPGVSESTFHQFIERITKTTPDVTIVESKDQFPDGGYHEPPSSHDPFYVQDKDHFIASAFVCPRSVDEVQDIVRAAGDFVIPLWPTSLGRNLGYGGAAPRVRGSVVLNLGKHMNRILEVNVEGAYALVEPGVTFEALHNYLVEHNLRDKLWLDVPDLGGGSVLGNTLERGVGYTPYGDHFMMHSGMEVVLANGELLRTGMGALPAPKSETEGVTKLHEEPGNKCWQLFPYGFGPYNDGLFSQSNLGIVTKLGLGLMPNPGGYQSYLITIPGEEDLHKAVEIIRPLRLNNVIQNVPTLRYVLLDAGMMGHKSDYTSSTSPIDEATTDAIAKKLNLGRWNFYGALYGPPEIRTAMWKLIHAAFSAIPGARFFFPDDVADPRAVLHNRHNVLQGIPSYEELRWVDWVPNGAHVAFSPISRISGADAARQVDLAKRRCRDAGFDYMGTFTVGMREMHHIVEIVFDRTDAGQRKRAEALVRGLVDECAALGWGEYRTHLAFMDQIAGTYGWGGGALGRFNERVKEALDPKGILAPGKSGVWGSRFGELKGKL

specific activity of purified enzyme, xylenol orange H2O2 assay: 6.3 ± 0.5 U mg^−1
Compound: COc1cc(CO)cc(OC)c1O [compound 6, 4-(hydroxymethyl)-2,6-dimethoxyphenol]
